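Following 48 hours of exposure in 96-well plates, responses at five concentrations were used to interpolate endpoints linearly. GI50 = concentration required for 50% inhibition of growth. TGI marks complete inhibition of growth.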
Assays:
Assay in all cases: NCI anticancer screen, dose series, 48 h
786-0 renal = tested on: 786-0 renal
A498 renal = tested on: A498 renal
A549 NSCLC = tested on: A549 NSCLC
ACHN renal = tested on: ACHN renal
BT-549 breast = tested on: BT-549 breast
CAKI-1 renal = tested on: CAKI-1 renal
CCRF-CEM leukemia = tested on: CCRF-CEM leukemia
COLO 205 colon = tested on: COLO 205 colon
DU-145 prostate = tested on: DU-145 prostate
EKVX NSCLC = tested on: EKVX NSCLC
HCC-2998 colon = tested on: HCC-2998 colon
HCT-116 colon = tested on: HCT-116 colon
HCT-15 colon = tested on: HCT-15 colon
HL-60(TB) leukemia = tested on: HL-60(TB) leukemia
HOP-62 NSCLC = tested on: HOP-62 NSCLC
HOP-92 NSCLC = tested on: HOP-92 NSCLC
HS 578T breast = tested on: HS 578T breast
HT29 colon = tested on: HT29 colon
IGROV1 ovarian = tested on: IGROV1 ovarian
K-562 leukemia = tested on: K-562 leukemia
KM12 colon = tested on: KM12 colon
LOX IMVI melanoma = tested on: LOX IMVI melanoma
M14 melanoma = tested on: M14 melanoma
MALME-3M melanoma = tested on: MALME-3M melanoma
MCF7 breast = tested on: MCF7 breast
MDA-MB-231 breast = tested on: MDA-MB-231 breast
MDA-MB-435 = tested on: MDA-MB-435
MDA-MB-468 breast = tested on: MDA-MB-468 breast
MOLT-4 leukemia = tested on: MOLT-4 leukemia
NCI-H226 lung = tested on: NCI-H226 lung
NCI-H23 lung = tested on: NCI-H23 lung
NCI-H460 lung = tested on: NCI-H460 lung
NCI-H522 lung = tested on: NCI-H522 lung
NCI/ADR-RES ovarian = tested on: NCI/ADR-RES ovarian
OVCAR-3 ovarian = tested on: OVCAR-3 ovarian
OVCAR-4 ovarian = tested on: OVCAR-4 ovarian
OVCAR-5 ovarian = tested on: OVCAR-5 ovarian
OVCAR-8 ovarian = tested on: OVCAR-8 ovarian
PC-3 prostate = tested on: PC-3 prostate
RPMI-8226 leukemia = tested on: RPMI-8226 leukemia
RXF 393 renal = tested on: RXF 393 renal
SF-268 CNS = tested on: SF-268 CNS
SF-295 CNS = tested on: SF-295 CNS
SF-539 CNS = tested on: SF-539 CNS
SK-MEL-2 melanoma = tested on: SK-MEL-2 melanoma
SK-MEL-28 melanoma = tested on: SK-MEL-28 melanoma
SK-MEL-5 melanoma = tested on: SK-MEL-5 melanoma
SK-OV-3 ovarian = tested on: SK-OV-3 ovarian
SN12C renal = tested on: SN12C renal
SNB-19 CNS = tested on: SNB-19 CNS
SNB-75 CNS = tested on: SNB-75 CNS
SR leukemia = tested on: SR leukemia
SW-620 colon = tested on: SW-620 colon
T-47D breast = tested on: T-47D breast
TK-10 renal = tested on: TK-10 renal
U251 CNS = tested on: U251 CNS
UACC-257 melanoma = tested on: UACC-257 melanoma
UACC-62 melanoma = tested on: UACC-62 melanoma
UO-31 renal = tested on: UO-31 renal

O=C(c1ccc(Cl)cc1)C(c1c[nH]c2ccccc12)c1c[nH]c2ccccc12
GI50 (786-0 renal): 2.12 µM
TGI (786-0 renal): 4.22 µM
GI50 (A498 renal): 18 µM
TGI (A498 renal): 34.1 µM
GI50 (A549 NSCLC): 13.5 µM
TGI (A549 NSCLC): 31.6 µM
GI50 (ACHN renal): 1.91 µM
TGI (ACHN renal): 4.17 µM
GI50 (BT-549 breast): 4.09 µM
TGI (BT-549 breast): 14.4 µM
GI50 (CAKI-1 renal): 2.94 µM
TGI (CAKI-1 renal): 14.3 µM
GI50 (CCRF-CEM leukemia): 3.21 µM
TGI (CCRF-CEM leukemia): > 100 µM
GI50 (COLO 205 colon): 16.3 µM
TGI (COLO 205 colon): 31.2 µM
GI50 (DU-145 prostate): 4.36 µM
TGI (DU-145 prostate): 16.4 µM
GI50 (EKVX NSCLC): 6.46 µM
TGI (EKVX NSCLC): 20.8 µM
GI50 (HCC-2998 colon): 2.33 µM
TGI (HCC-2998 colon): 5.8 µM
GI50 (HCT-116 colon): 1.65 µM
TGI (HCT-116 colon): 3.16 µM
GI50 (HCT-15 colon): 2.21 µM
TGI (HCT-15 colon): 6.16 µM
GI50 (HL-60(TB) leukemia): 2.6 µM
TGI (HL-60(TB) leukemia): 8.35 µM
GI50 (HOP-62 NSCLC): 13 µM
TGI (HOP-62 NSCLC): 27.3 µM
GI50 (HOP-92 NSCLC): 3.32 µM
TGI (HOP-92 NSCLC): 16.8 µM
GI50 (HS 578T breast): 13.4 µM
TGI (HS 578T breast): 45.8 µM
GI50 (HT29 colon): 2.79 µM
TGI (HT29 colon): 6.97 µM
GI50 (IGROV1 ovarian): 4.05 µM
TGI (IGROV1 ovarian): 16.8 µM
GI50 (K-562 leukemia): 2.99 µM
TGI (K-562 leukemia): 9.64 µM
GI50 (KM12 colon): 8.98 µM
TGI (KM12 colon): 22 µM
GI50 (LOX IMVI melanoma): 1.68 µM
TGI (LOX IMVI melanoma): 3.26 µM
GI50 (M14 melanoma): 2.9 µM
TGI (M14 melanoma): 12.7 µM
GI50 (MALME-3M melanoma): 3.41 µM
TGI (MALME-3M melanoma): 15.9 µM
GI50 (MCF7 breast): 2.38 µM
TGI (MCF7 breast): 8.25 µM
GI50 (MDA-MB-231 breast): 4.87 µM
TGI (MDA-MB-231 breast): 20.2 µM
GI50 (MDA-MB-435): 3.85 µM
TGI (MDA-MB-435): 14.3 µM
GI50 (MDA-MB-468 breast): 2.69 µM
TGI (MDA-MB-468 breast): 7.65 µM
GI50 (MOLT-4 leukemia): 2.69 µM
TGI (MOLT-4 leukemia): 12.2 µM
GI50 (NCI-H226 lung): 8.88 µM
TGI (NCI-H226 lung): 24.7 µM
GI50 (NCI-H23 lung): 4.05 µM
TGI (NCI-H23 lung): 17.4 µM
GI50 (NCI-H460 lung): 3.65 µM
TGI (NCI-H460 lung): 14.9 µM
GI50 (NCI-H522 lung): 1.74 µM
TGI (NCI-H522 lung): 3.52 µM
GI50 (NCI/ADR-RES ovarian): 3.52 µM
TGI (NCI/ADR-RES ovarian): 15.8 µM
GI50 (OVCAR-3 ovarian): 2.56 µM
TGI (OVCAR-3 ovarian): 7.18 µM
GI50 (OVCAR-4 ovarian): 5.23 µM
TGI (OVCAR-4 ovarian): 18.2 µM
GI50 (OVCAR-5 ovarian): 3.79 µM
TGI (OVCAR-5 ovarian): 15.5 µM
GI50 (OVCAR-8 ovarian): 11.2 µM
TGI (OVCAR-8 ovarian): 24.2 µM
GI50 (PC-3 prostate): 3.08 µM
TGI (PC-3 prostate): 12.7 µM
GI50 (RPMI-8226 leukemia): 3.01 µM
TGI (RPMI-8226 leukemia): 15.4 µM
GI50 (RXF 393 renal): 2.93 µM
TGI (RXF 393 renal): 9.21 µM
GI50 (SF-268 CNS): 4.85 µM
TGI (SF-268 CNS): 19.8 µM
GI50 (SF-295 CNS): 12.1 µM
TGI (SF-295 CNS): 24.9 µM
GI50 (SF-539 CNS): 5.53 µM
TGI (SF-539 CNS): 18.8 µM
GI50 (SK-MEL-2 melanoma): 12.2 µM
TGI (SK-MEL-2 melanoma): 26.1 µM
GI50 (SK-MEL-28 melanoma): 2.36 µM
TGI (SK-MEL-28 melanoma): 6.42 µM
GI50 (SK-MEL-5 melanoma): 11.3 µM
TGI (SK-MEL-5 melanoma): 23.7 µM
GI50 (SK-OV-3 ovarian): 14.1 µM
TGI (SK-OV-3 ovarian): 27.7 µM
GI50 (SN12C renal): 3.13 µM
TGI (SN12C renal): 12 µM
GI50 (SNB-19 CNS): 15.4 µM
TGI (SNB-19 CNS): 29.6 µM
GI50 (SNB-75 CNS): 2.43 µM
TGI (SNB-75 CNS): 13.3 µM
GI50 (SR leukemia): 2.73 µM
TGI (SR leukemia): 10.9 µM
GI50 (SW-620 colon): 2.99 µM
TGI (SW-620 colon): 9.91 µM
GI50 (T-47D breast): 3.01 µM
TGI (T-47D breast): 16 µM
GI50 (TK-10 renal): 18.9 µM
TGI (TK-10 renal): 33.2 µM
GI50 (U251 CNS): 10.8 µM
TGI (U251 CNS): 24.1 µM
GI50 (UACC-257 melanoma): 4.93 µM
TGI (UACC-257 melanoma): 18.1 µM
GI50 (UACC-62 melanoma): 4.49 µM
TGI (UACC-62 melanoma): 17.6 µM
GI50 (UO-31 renal): 3.41 µM
TGI (UO-31 renal): 17 µM

Source: PubChem BioAssay (NCI)
